Consider 14 compounds from ChEMBL document CHEMBL2311280, “Protein tyrosine phosphatase 1B inhibitory effect by dammarane-type triterpenes from hydrolyzate of total Gynostemma pentaphyllum saponins” (Bioorg Med Chem Lett, 2013).

This test concerns the target T1, Tyrosine-protein phosphatase non-receptor type 1 (Homo sapiens, UniProt P18031).
T1 sequence (P18031 whole entry): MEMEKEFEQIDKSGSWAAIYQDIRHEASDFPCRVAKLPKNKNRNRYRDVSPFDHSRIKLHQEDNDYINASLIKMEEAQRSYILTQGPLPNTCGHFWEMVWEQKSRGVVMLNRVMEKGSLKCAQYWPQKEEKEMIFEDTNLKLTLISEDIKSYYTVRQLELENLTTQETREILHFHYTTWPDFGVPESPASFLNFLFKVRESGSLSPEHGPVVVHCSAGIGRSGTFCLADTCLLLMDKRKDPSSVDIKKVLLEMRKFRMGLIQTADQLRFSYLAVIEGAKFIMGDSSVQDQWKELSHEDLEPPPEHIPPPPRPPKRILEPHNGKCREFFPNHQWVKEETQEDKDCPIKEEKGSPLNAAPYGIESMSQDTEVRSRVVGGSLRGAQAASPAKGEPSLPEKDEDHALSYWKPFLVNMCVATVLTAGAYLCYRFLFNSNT
The test can be described thus: Inhibition of PTP1B (unknown origin).

For the compound `CC(=O)O[C@H]1CC[C@]2(C)[C@H]3CC[C@@H]4[C@@H](C5=C[C@H](CC(C)(C)O)OC5=O)CC[C@@]4(C)[C@]3(C)CC[C@H]2C1(C)C` [GYPENSAPOGENIN G], the IC50 (commonly the point on the concentration scale where inhibition reaches its midpoint) was determined as 24.5 µM.

In turn, `CC(C)=C[C@H]1C[C@@](O)([C@H]2CC[C@]3(C)[C@@H]2CC[C@@H]2[C@@]4(C)CC[C@H](O)C(C)(C)[C@@H]4CC[C@]23C)C(=O)O1` gave an IC50 of 8.4 µM.

For `CC(C)=CCC[C@](C)(O)[C@H]1CC[C@]2(C)[C@@H]1[C@H](O)C[C@@H]1[C@@]3(C)CC[C@H](O)C(C)(C)[C@@H]3CC[C@]12C`, the midpoint of inhibition, the IC50, lay at 23.6 µM.

Take `CC(C)(O)C[C@@H]1C=C([C@H]2CC[C@]3(C)[C@@H]2CC[C@@H]2[C@@]4(C)CC[C@H](O)C(C)(C)[C@@H]4CC[C@]23C)C(=O)O1` [GYPENSAPOGENIN F]: the IC50 was 49 µM.

The compound `C=C(C)CCC[C@](C)(O)[C@H]1CC[C@]2(C)[C@@H]1[C@H](O)C[C@@H]1[C@@]3(C)CC[C@H](O)C(C)(C)[C@@H]3CC[C@]12C` displayed an IC50 of over 50 µM.

For `CC(C)=CCC[C@@](O)(CO)[C@H]1CC[C@]2(C)[C@@H]1CC[C@@H]1[C@@]3(C)CC[C@H](O)C(C)(C)[C@@H]3CC[C@]12C`, the IC50 stood at 15.2 µM.

`CC(C)=C1CC=C([C@H]2CC[C@]3(C)[C@@H]2CC[C@@H]2[C@@]4(C)CC[C@H](O)C(C)(C)[C@@H]4CC[C@]23C)C1=O` [GYPENSAPOGENIN C] registered an IC50 of over 50 µM.

`CC(C)(O)C[C@H]1C=C([C@H]2CC[C@]3(C)[C@@H]2CC[C@@H]2[C@@]4(C)CC[C@H](O)C(C)(C)[C@@H]4CC[C@]23C)C(=O)O1` [GYPENSAPOGENIN E] registered an IC50 of 23 µM.

Consider `CC(C)=C[C@H]1C=C([C@H]2CC[C@]3(C)[C@@H]2CC[C@@H]2[C@@]4(C)CC[C@H](O)C(C)(C)[C@@H]4CC[C@]23C)C(=O)O1` [GYPENSAPOGENIN D], for which the IC50 is over 50 µM.

For `CC1(C)[C@@H](O)CC[C@]2(C)[C@H]3CC[C@@H]4[C@@H](C(=O)O)CC[C@@]4(C)[C@]3(C)CC[C@@H]12`, the IC50 came to 13.1 µM. That is a double-digit micromolar value.

Take `C/C(=C/CCC(C)(C)O)[C@H]1CC[C@]2(C)[C@@H]1[C@H](O)C[C@@H]1[C@@]3(C)CC[C@H](O)C(C)(C)[C@@H]3CC[C@]12C`: the IC50 was over 50 µM.

`CC(C)=C[C@@H]1C[C@](O)([C@H]2CC[C@]3(C)[C@@H]2CC[C@@H]2[C@@]4(C)CC[C@H](O)C(C)(C)[C@@H]4CC[C@]23C)C(=O)O1`: half-maximal inhibition (IC50) was put at 27.8 µM. This lies in the double-digit micromolar range.

As for `C=C(C)[C@@H](O)CC[C@](C)(O)[C@H]1CC[C@]2(C)[C@@H]1[C@H](O)C[C@@H]1[C@@]3(C)CC[C@H](O)C(C)(C)[C@@H]3CC[C@]12C`, the IC50 is over 50 µM.

For the compound `CC(C)=C1CC([C@H]2CC[C@]3(C)[C@@H]2CC[C@@H]2C4=C(CC[C@]23C)C(C)(C)[C@@H]2CC[C@H]4O2)=CC1=O` [GYPENSAPOGENIN B], the IC50 stood at 24.5 µM.
